Consider 2 compounds from paper PMC3903516 (PLoS ONE, 2014).

Data set [1] concerns the target T1, CYP2A6*15 (Homo sapiens, UniProt P11509, K194E).
T1 construct: made in house; host or cells: E. coli (membrane fractions; pCW-CYP2A6*15 co-expressed with pACYC-OxR)
T1 sequence (P11509 1-494 K194E): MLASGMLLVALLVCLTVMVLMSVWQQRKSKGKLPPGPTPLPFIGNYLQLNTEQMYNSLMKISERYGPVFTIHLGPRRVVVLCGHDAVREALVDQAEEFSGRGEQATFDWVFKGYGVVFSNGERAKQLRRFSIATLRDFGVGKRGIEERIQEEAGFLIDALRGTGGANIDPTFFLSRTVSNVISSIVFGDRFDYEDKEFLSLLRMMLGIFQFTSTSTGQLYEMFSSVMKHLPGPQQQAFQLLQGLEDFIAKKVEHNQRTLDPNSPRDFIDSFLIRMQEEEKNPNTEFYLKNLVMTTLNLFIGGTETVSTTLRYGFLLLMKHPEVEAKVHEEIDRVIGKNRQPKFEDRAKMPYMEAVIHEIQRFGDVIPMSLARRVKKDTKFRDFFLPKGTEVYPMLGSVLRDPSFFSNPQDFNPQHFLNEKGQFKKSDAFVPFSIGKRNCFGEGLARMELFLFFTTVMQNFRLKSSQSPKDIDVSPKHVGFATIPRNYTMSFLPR
Nature of the data set: CYP2A6 inactivation assay (fluorescence-based coumarin 7-hydroxylase assay). Conditions: pH 7.4, probe coumarin (10 µM; 7-hydroxylation), 8-MOP 1.0 µM, 10 min pre-incubation with NADPH generating system vs no pre-incubation, read-out: increased percentage in inhibition with pre-incubation. It counts as biochemical. The text has this: (§1) A fully functional P450 monooxygenase system requires collaboration of the CYP of interest in concert with the essential coenzyme, NADPH-CYP oxidoreductase (OxR). Here, we co-expressed the individual CYP2A6 plasmid constructs – pCW-CYP2A6, pCW-CYP2A6*15, pCW-CYP2A6*16, pCW-CYP2A6*21 or pCW-CYP2A6*22, with pACYC-OxR plasmid which allowed for OxR co-expression that was important for CYP2A6 catalytic function. Preparation of membrane fragments expressing holoenzyme protein of respective CYP2A6 construct was in accordance to the established method described previously. Membrane fractions were stored at −80°C in a 1∶1 mixture of pH 7.6 TES (100 mM Tris/0.5 mM EDTA/500 mM sucrose buffer) and ice-cold distilled water before use.
(§2) Assessment of coumarin 7-hydroxylation is a signature marker for CYP2A6 metabolic assay. To evaluate the inhibitory potency of 8-MOP on the kinetic activity of CYP2A6 variants, we adopted a fluorescence-based coumarin 7-hydroxylase assay upon minor modifications of an established protocol, [13]. […] NADPH generating system (1 mM NADP, 10 mM G6P, 2IU G6PDH and 5 mM MgCl2) in 0.1 M phosphate buffer, pH 7.4 was added subsequently to the incubation mixture to initiate the reactions. […] Enzyme inhibition reactions were allowed in 25 minutes of incubation and later terminated by 500 mM Tris base. The experimental conditions were selected such that under conditions with varying activities of CYP2A6 proteins, no more than 20% of the substrate was converted to 7-hydroxycoumarin. The fluorescent metabolite was detected by Tecan Infinite™ 200 series microplate reader (Männerdorf, Switzerland) at excitation wavelength 365 nm and emission wavelength 450 nm and further estimated based on the standard curve of 7-hydroxycoumarin which was constructed in the range of 15.63–2000 pmol/well previously (data not shown). Current assay also included control for fluorescent interference which consisted of inhibitor (at a concentration equal to the inhibition incubations) and bacterial control membranes.

The target in data set [2] is T2, CYP2A6*21 (Homo sapiens, UniProt P11509, K476R).
T2 construct: made in house; host or cells: E. coli (membrane fractions; pCW-CYP2A6*21 co-expressed with pACYC-OxR)
T2 sequence (P11509 1-494 K476R): T1 sequence (P11509 1-494 K194E) with E194K, K476R
The data set is described as above. Type of data set: biochemical. The conditions noted are these: pH 7.4, probe coumarin (10 µM; 7-hydroxylation), 8-MOP 1.0 µM, 10 min pre-incubation with NADPH generating system vs no pre-incubation, read-out: increased percentage in inhibition with pre-incubation.
Source text: as §1, §2

For data set [3], the target named is T3, CYP2A6*1 (wild-type) (Homo sapiens, UniProt P11509).
T3 construct: made in house; host or cells: E. coli (membrane fractions; pCW-CYP2A6*1 co-expressed with pACYC-OxR)
T3 sequence (P11509 1-494): T1 sequence (P11509 1-494 K194E) with E194K
The data set is described as above. Type of data set: biochemical. The conditions noted are these: pH 7.4, probe coumarin (10 µM; 7-hydroxylation), 8-MOP 1.0 µM, 10 min pre-incubation with NADPH generating system vs no pre-incubation, read-out: increased percentage in inhibition with pre-incubation.
Source text: as §1, §2

Data set [4] deals with T4, CYP2A6*16 (Homo sapiens, UniProt P11509, R203S).
T4 construct: made in house; host or cells: E. coli (membrane fractions; pCW-CYP2A6*16 co-expressed with pACYC-OxR)
T4 sequence (P11509 1-494 R203S): T1 sequence (P11509 1-494 K194E) with E194K, R203S
The data set is described as above. Type of data set: biochemical. The conditions noted are these: pH 7.4, probe coumarin (10 µM; 7-hydroxylation), 8-MOP 1.0 µM, 10 min pre-incubation with NADPH generating system vs no pre-incubation, read-out: increased percentage in inhibition with pre-incubation.
Source text: as §1, §2

The target of data set [5] is T5, CYP2A6*22 (Homo sapiens, UniProt P11509, D158E/L160I).
T5 construct: made in house; host or cells: E. coli (membrane fractions; pCW-CYP2A6*22 co-expressed with pACYC-OxR)
T5 sequence (P11509 1-494 D158E/L160I): T1 sequence (P11509 1-494 K194E) with D158E, L160I, E194K
The description is as above. It counts as biochemical. The conditions noted are these: pH 7.4, probe coumarin (10 µM; 7-hydroxylation), 8-MOP 1.0 µM, 10 min pre-incubation with NADPH generating system vs no pre-incubation, read-out: increased percentage in inhibition with pre-incubation.
Source text: as §1, §2

In another data set the test system is CYP2A6 K476E. Details: method as in PMID 16207711. The conditions noted are these: towards coumarin; cited from earlier work.
For data set [6], the target named is T5, CYP2A6*22. Also on record: method as in PMID 20139165. Conditions: coumarin 7-hydroxylation, mean ± SD n=3; cited from earlier work.
Data set [7] addresses T3, CYP2A6*1 (wild-type). Also on record: method as in PMID 20139165. The conditions noted are these: coumarin 7-hydroxylation, mean ± SD n=3; cited from earlier work.
The target of data set [8] is T4, CYP2A6*16. Details: method as in PMID 20139165. The conditions noted are these: coumarin 7-hydroxylation, mean ± SD n=3; cited from earlier work.
Data set [9] deals with T1, CYP2A6*15. Details: method as in PMID 20139165. Conditions: coumarin 7-hydroxylation, mean ± SD n=3; cited from earlier work.
The target of data set [10] is T2, CYP2A6*21. Details: method as in PMID 20139165. The conditions noted are these: coumarin 7-hydroxylation, mean ± SD n=3; cited from earlier work.

Substitutions are numbered along the chain they refer to.

As for `COc1c2occc2cc2ccc(=O)oc12` [8-methoxypsoralen], the inhibition (as a rule, the relative decrease from the control value, in per cent) at 35 min, 1 µM at CYP2A6*15 [1] was found to be 32%; at CYP2A6*21 [2], 24%; at CYP2A6*1 (wild-type) [3], 35%; at CYP2A6*16 [4] it was 31%; at CYP2A6*22 [5] it was 23%.
For `O=c1ccc2ccccc2o1` [coumarin], the “catalytic efficiency, % of the wild type kcat/Km value” in the data set on CYP2A6 K476E was around 8%. For the same compound, the Km (in general, the concentration of substrate that gives half-maximal velocity) at CYP2A6*22 [6] is 31.2 ± 2.22 µM; at CYP2A6*1 (wild-type) [7], 10.6 ± 1.58 µM; on CYP2A6*16 [8], 10.5 ± 1.45 µM; on CYP2A6*15 [9] it was 22.1 ± 1.29 µM; at CYP2A6*21 [10], 16.4 ± 0.41 µM.
